This is an account of results in patent US20190308956A1, “PIPERAZINE DERIVATIVES AS ANTIVIRAL AGENTS WITH INCREASED THERAPEUTIC ACTIVITY” (SERVICIO ANDALUZ DE SALUD, priority 2016, published 2019).

For one series, the system named is HAdV5-GFP. Nature of the series: Plaque assay, HAdV5-GFP in 293β5 cells. The series is classed as cell-based. The note with it: read-out: Percentage of plaque formation inhibition, HAdV5-GFP, 10 μM, 293β5 cell line. As to the method: 1.5. Plaque assay. For low MOI infections, active compounds were further evaluated in a plaque assay. 293β5 cells were seeded in 6-well plates at 4×10^5 cells per well in duplicate for each condition. When cells reached 80-90% confluency, they were infected with HAdV5-GFP or HAdV16-GFP (0.06 vp/cell) and rocked for 2 h at 37° C. The inoculum was removed and the cells were washed once with PBS. The cells were then carefully overlaid with 4 ml/well of equal parts of 1.6% […] Difco Agar Noble (Becton, Dickinson & Co, Sparks, MD) and 2× EMEM (BioWhittaker) supplemented with 2x penicillin/streptomycin, 2× L-glutamine and 10% FBS. The mixture also contained compound in concentrations ranging from 5 to 1 μM. Following incubation for 7 days at 37° C., plates were scanned with a Typhoon 9410 imager (GE Healthcare Life Sciences), and plaques were quantified with ImageJ.43
For the plaque assay 293β5 cells were infected with HAdV5-GFP (in the presence of compound at 10 μM) (Table 2). From this generation of compounds, our primary screening identified 4 compounds (12, 13, 22 and 25) that inhibited HAdV5-GFP plaque formation >90% compared to a control with the same volume of DMSO.

Series [1] in a line: Cytotoxicity assay (alamarBlue cell viability). The series is classed as cell-based, Human. The conditions noted are these: human, A549 cells. As to the method: 1.4. Cytotoxicity assay. The cytotoxicity of the compounds was measured using the AlarmBlue cell viability assay (Invitrogen) according to the manufacturer's instructions. Actively dividing A549 cells were incubated with compounds for 48 h. After the incubation the alamarBlue reagent was added to the cells ( 1/10th alamarBlue reagent in culture medium) for an extra 4 h. The 50% cell cytotoxic concentration (CC50) of the molecules was calculated according to Cheng et al.42 The selectivity index (SI) was evaluated as the ratio of CC50 to IC50, where the IC50 is defined as the concentration of compound that inhibits HAdV infection by 50%.
On the technique in general: The colour change of resazurin is a common sign of viable cells or microbes.

For series [2], the system named is Acinetobacter baumannii strains resistant to colistine. Nature of the series: Minimal inhibitory concentration (MIC), microdilution in MHBII. The series is classed as cell-based. The conditions noted are these: 5×10^5 CFU/ml, 18 h; for CMI (MIC) Ab 21R: strain Ab 21R; for CMI (MIC) Ab 21R / CMI (MIC) Ab 22P: MHBII; for CMI (MIC) Ab 22P: strain Ab 22P; for CMI (MIC) Ab 24: strain Ab 24, MHBII. From the text:
(§1) All of the strains used were Acinetobacter baumannii strains resistant to colistine: Resistance (R)≥4 Sensibility (S)≤2—All of these strains have been disclosed in Valencia R, Arroyo L A, Conde M, Aldana J M, Torres M J, Fernandez-Cuenca F, et al. Nosocomial outbreak of infection with pan-drug-resistant Acinetobacter baumannii in a tertiary care university hospital. Infection control and hospital epidemiology. 2009; 30(3):257-63. The specific strains used were the following: 1, 10, 11, 14, 16, 17, 19, 20, 21R, 22P, 24, 99 and 113.
Microdilution in cell medium Mueller Hinton Broth II (MHBII). This technique was carried out solely in those piperazines which presented inhibitory activity in the screening study.
We used decreasing concentrations of each piperazine derivative (from 50 μM -0.05 μM) in a concentration of 5×10^5 CFU/ml of each strain of A. baumannii in 96 well plates. These plates were incubated for 18 hours at a temperature 37° C.
Background: Broth dilution looks for growth in wells or tubes with falling amounts of substance.

The test system is the same in series [3]. Nature of the series: Screening of inhibition of bacterial growth at 50 μM. The series is classed as cell-based. The conditions noted are these: 5×10^5 CFU/ml, 18 h; for Screening, growth inhibition Ab 21R: strain Ab 21R; for Screening, growth inhibition Ab 21R / Screening, growth inhibition Ab 22P: 50 μM; for Screening, growth inhibition Ab 22P: strain Ab 22P; for Screening, growth inhibition Ab 24: strain Ab 24, 50 μM.
Source text: as §1
Evaluation of the inhibition of the bacterial growth of the 4 families of piperazines derivatives was performed by using a final concentration of 50 μM of each piperazine derivative in a concentration of 5×10^5 CFU/ml of each strain of A. baumannii in 96-well plates.
These plates were incubated for 18 hours at 37° C.

As a reminder, the inhibition is the drop in the measured response relative to a control, in per cent. What is called CC50 is the concentration that lowers cell viability or growth by half. Low values mean harm at low concentration, high ones better tolerance by the cells.

As to `COc1ccc(NC(=O)N2CCN(C(=O)C(C)(C)C)CC2C)cc1` (centres unmarked) [Compound 19, 1-[(4-Methoxyphenyl)aminocarbonyl]-2-methyl-4-pivaloylpiperazine], the inhibition at 10 µM in the series with HAdV5-GFP worked out at 0%.
Consider `COc1ccc(NC(=O)N2CCN(C(=O)OC(C)(C)C)CC2c2ccccc2)cc1` (centres unmarked) [Compound 54, 4-tert-Butoxycarbonyl-1-[(4-methoxyphenyl)aminocarbonyl]-2-phenylpiperazine], for which it took 133 ± 58.8 µM to reach half-maximal cytotoxicity in series [1] (48 h) (CC50 at 48 h). The inhibition at 10 µM with HAdV5-GFP turned out to be 78.9 ± 1.57%.
Consider `CC1CN(C(=O)c2cc3ccccc3o2)CCN1C(=O)Nc1ccccc1[N+](=O)[O-]` (centres unmarked) [Compound 36, 4-(Benzofuran-2-carbonyl)-2-methyl-1-[(2-nitrophenyl)aminocarbonyl]piperazine], for which the CC50 at 48 h is more than 200 µM in series [1] and 203 ± 4.09 µM in series [1] (48 h). For the same molecule, in the series with HAdV5-GFP, the inhibition at 10 µM was 91 to 100%.
Take `CC(C)(C)OC(=O)N1CCN(C(=O)Nc2ccc(F)cc2)C(c2ccccc2)C1` (centres unmarked) [Compound 49, 4-tert-Butoxycarbonyl-1-[(4-fluorophenyl)aminocarbonyl]-2-phenylpiperazine]: the CC50 at 48 h in series [1] (48 h) came to 110 ± 8.09 µM. Moreover, the inhibition at 10 µM in the series on HAdV5-GFP amounted to 75.84 ± 0.49%.
The matching figures for `CC(C)(C)OC(=O)N1CCN(C(=O)Nc2ccc(C(F)(F)F)cc2)C(c2ccccc2)C1` (centres unmarked) [Compound 48, 4-tert-Butoxycarbonyl-2-phenyl-1-[(4-trifluoromethylphenyl)aminocarbonyl]piperazine]: 42.1 ± 28.6 µM and 71.51 ± 0.11%.
For `C[C@@H]1CN(C(=O)OC(C)(C)C)CCN1C(=S)Nc1cc(C(F)(F)F)cc(C(F)(F)F)c1` [Compound R-592], in series [2], the “CMI (MIC) Ab 21R” value amounted to 3.12 µM. Besides, the “Screening, growth inhibition Ab 21R” value in series [3] was less than 50 µM.
The molecule `CC(C)(C)OC(=O)N1CCN(C(=O)Nc2ccc(Cl)cc2)C(c2ccccc2)C1` (centres unmarked) [Compound 47, 4-tert-Butoxycarbonyl-1-[(4-chlorophenyl)aminocarbonyl]-2-phenylpiperazine] had a CC50 at 48 h in series [1] (48 h) of 17.1 ± 4.24 µM. For the same molecule, the inhibition at 10 µM with HAdV5-GFP was determined as 86.3 ± 6.35%.
For `CC(C)(C)OC(=O)N1CCN(C(=O)Nc2ccccc2[N+](=O)[O-])C(c2ccccc2)C1` (centres unmarked) [Compound 51, 4-tert-Butoxycarbonyl-1-[(2-nitrophenyl)aminocarbonyl]-2-phenylpiperazine] the same measures were 82.2 ± 9.06 µM and 100%.
In turn, `CC(C)(C)C(=O)N1CCN(C(=O)Nc2ccc([N+](=O)[O-])cc2)C(c2ccccc2)C1` (centres unmarked) [Compound 56, 1-[(4-Nitrophenyl)aminocarbonyl]-2-phenyl-4-pivaloylpiperazine] registered a CC50 at 48 h in series [1] (48 h) of 102 ± 8.38 µM. Further, in the series on HAdV5-GFP, the inhibition at 10 µM is 43.8 ± 13.2%.
For the molecule `CC1CN(C(=O)c2ccccc2)CCN1C(=O)Nc1ccc([N+](=O)[O-])cc1` (centres unmarked) [Compound 23, 4-Benzoyl-2-methyl-1-[(4-nitrophenyl)aminocarbonyl]piperazine], the inhibition at 10 µM in the series on HAdV5-GFP is 71.7 ± 3.43%.
`CC1CN(C(=O)c2cc3ccccc3o2)CCN1C(=O)Nc1ccc(C#N)cc1` (centres unmarked) [Compound 34, 4-(Benzofuran-2-carbonyl)-1-[(4-cyanophenyl)aminocarbonyl]-2-methylpiperazine] registered a half-maximal cytotoxic concentration (CC50) at 48 h in series [1] (48 h) of 118 ± 30.2 µM. Besides, the inhibition at 10 µM in the series on HAdV5-GFP stood at 83.2 ± 1.55%.
Turning to `CC1CN(C(=O)OC(C)(C)C)CCN1C(=S)Nc1ccc([N+](=O)[O-])cc1` (centres unmarked) [Vip 499], the “CMI (MIC) Ab 14” value in series [2] (strain Ab 14, MHBII) worked out at 25 µM. In series [2], the “CMI (MIC) Ab 21R” value is 50 µM, the “CMI (MIC) Ab 22P” value turned out to be 25 µM and the “CMI (MIC) Ab 24” value was 25 µM. Also, in series [3] (strain Ab 14, 50 μM), the “Screening, growth inhibition Ab 14” value was less than 50 µM. Further, in series [3], the “Screening, growth inhibition Ab 21R” value is less than 50 µM; the “Screening, growth inhibition Ab 22P” value was less than 50 µM; the “Screening, growth inhibition Ab 24” value was less than 50 µM.
Consider `CC1CN(C(=O)c2cc3ccccc3o2)CCN1C(=O)Nc1ccc(C(F)(F)F)cc1` (centres unmarked) [Compound 33, 4-(Benzofuran-2-carbonyl)-2-methyl-1-[(4-trifluoromethylphenyl)aminocarbonyl]piperazine], for which the CC50 at 48 h in series [1] (48 h) came to 82.2 ± 24.3 µM. In addition, the inhibition at 10 µM in the series on HAdV5-GFP was 91 to 100%.
For `COc1ccc(NC(=O)N2CCN(C(=O)OC(C)(C)C)CC2C)cc1` (centres unmarked) [Compound 14, 4-tert-Butoxycarbonyl-1-[(4-methoxyphenyl)aminocarbonyl]-2-methylpiperazine], the inhibition at 10 µM with HAdV5-GFP was found to be 49.1 ± 1.39%.
For `CC1CN(C(=O)c2ccccc2)CCN1C(=S)Nc1ccc([N+](=O)[O-])cc1` (centres unmarked) [Compound 22, 4-Benzoyl-2-methyl-1-[(4-nitrophenyl)aminothiocarbonyl]piperazine], in series [1] (48 h), the CC50 at 48 h amounted to 31.4 ± 2.82 µM. The inhibition at 10 µM in the series on HAdV5-GFP was more than 90%.
For `CC1CN(C(=O)c2cc3ccccc3o2)CCN1C(=O)Nc1ccc(Cl)cc1` (centres unmarked) [Compound 32, 4-(Benzofuran-2-carbonyl)-1-[(4-chlorophenyl)aminocarbonyl]-2-methylpiperazine] the same measures were 144 ± 20.8 µM and 6.69 ± 11.1%.
Molecule `CC1CN(C(=O)OC(C)(C)C)CCN1C(=O)Nc1ccc(Cl)cc1` (centres unmarked) [Compound 27, 4-tert-Butoxycarbonyl-1-[(4-chlorophenyl)aminocarbonyl]-2-methylpiperazine] returned a CC50 at 48 h in series [1] (48 h) of 150 ± 1.01 µM. Further, in the series with HAdV5-GFP, the inhibition at 10 µM was determined as 62.03 ± 0.26%.
Turning to `CC1CN(C(=O)C(C)(C)C)CCN1C(=O)Nc1ccc([N+](=O)[O-])cc1` (centres unmarked) [Compound 18, 2-Methyl-1-[(4-nitrophenyl)aminocarbonyl]-4-pivaloylpiperazine], in the series with HAdV5-GFP, the inhibition at 10 µM was 0%.
Same read-out and setting: for `COc1ccc(NC(=O)N2CCN(C(=O)c3ccccc3)CC2C)cc1` (centres unmarked) [Compound 24, 4-Benzoyl-1-[(4-methoxyphenyl)aminocarbonyl]-2-methylpiperazine] the value was 0%; for `CC1CN(C(=O)C(C)(C)C)CCN1C(=S)Nc1ccc([N+](=O)[O-])cc1` (centres unmarked) [Compound 17, 2-Methyl-1-[(4-nitrophenyl)aminothiocarbonyl]-4-pivaloylpiperazine], 64 ± 8.97%.
As for `C[C@@H]1CN(C(=O)CC2CCCCC2)CCN1C(=S)Nc1cc(C(F)(F)F)cc(C(F)(F)F)c1` [Compound R-615], the “CMI (MIC) Ab 24” value in series [2] was determined as 6.25 µM. Besides, the “Screening, growth inhibition Ab 24” value in series [3] was less than 50 µM.
For `COc1ccccc1NC(=O)N1CCN(C(=O)c2cc3ccccc3o2)CC1C` (centres unmarked) [Compound 40, 4-(Benzofuran-2-carbonyl)-1-[(2-methoxyphenyl)aminocarbonyl]-2-methylpiperazine], in the series on HAdV5-GFP, the inhibition at 10 µM is 16.4 ± 5.81%.
On the same count and under the same terms, under `CC1CN(C(=O)c2cc3ccccc3o2)CCN1C(=O)Nc1ccccc1` (centres unmarked) [Compound 41, 4-(Benzofuran-2-carbonyl)-2-methyl-1-(phenylaminocarbonyl)piperazine] stands 11.2 ± 26.5%; under `COc1ccc(C(=O)N2CCN(C(=O)c3ccccc3)CC2C)cc1` (centres unmarked) [Compound 21, 4-Benzoyl-1-(4-methoxybenzoyl)-2-methylpiperazine], 0%; under `CC1CN(C(=O)c2cc3ccccc3o2)CCN1C(=O)Nc1ccccc1Br` (centres unmarked) [Compound 38, 4-(Benzofuran-2-carbonyl)-1-[(2-bromophenyl)aminocarbonyl]-2-methylpiperazine], 55.8 ± 19.5%.
In the case of `C[C@H]1CN(C(=O)OC(C)(C)C)CCN1C(=S)Nc1cc(C(F)(F)F)cc(C(F)(F)F)c1` [Compound S-592], in series [2], the “CMI (MIC) Ab 21R” value was 3.12 µM, the “CMI (MIC) Ab 22P” value was determined as 12.5 µM and the “CMI (MIC) Ab 24” value amounted to 3.12 µM. In series [3], the “Screening, growth inhibition Ab 21R” value is less than 50 µM; the “Screening, growth inhibition Ab 22P” value was less than 50 µM; the “Screening, growth inhibition Ab 24” value was less than 50 µM.
